Results on 61 molecules are retold here after patent publication US5814646A, “Inhibitors of amyloid beta-protein production” (Eli Lilly and Company, priority 1995, dated 1998).

What is called inhibition is how much of the control response was suppressed. Higher therefore signals strong suppression. In general, IC50 refers to the concentration that inhibits the measured activity by half.

The structures appear in SMILES notation.

In the first experiment the test system is Aβ production in 293 751 SWE and CHO 751 SWE cells (transfected with APP-751 Swedish mutation). Nature of the experiment: Aβ production inhibition activity in cells (Aβ ELISA of conditioned media, normalized for cytotoxicity by MTT). The format is cell-based. The note with it: 5 μg/ml. The protocol:
Two cell lines (human kidney cell line 293 and Chinese hamster ovary cell line CHO) were stably transfected with the gene for APP-751 containing the double mutation Lys651 -Met652 to Asn651 -Leu652 (APP-751 numbering) commonly called the Swedish mutation using the method described in Citron et al., (1992) Nature 360:672-674. The transfected cell lines were designated as 293 751 SWE and CHO 751 SWE, and were plated in Corning 96 well plates at 2.5×10^4 or 1×10^4 cells per well respectively in Dulbecco's minimal essential media plus 10% fetal bovine serum. Following overnight incubation at 37° C. in an incubator equilibrated with 10% carbon dioxide (CO2), the media were removed and replaced with 200 μL per well of media containing a test compound. After a two hour pretreatment period, the media were again removed and replaced with fresh media containing the test compound and the cells were incubated for an additional two hours.
Test compound stocks were prepared in DMSO such that at the final concentration used in the treatment, the concentration of DMSO did no exceed 0.5%. After treatment, plates were centrifuged in a Beckman GPR at 1200 rpm for five minutes at room temperature to pellet cellular debris from the conditioned media. From each well, 100 μL of conditioned media were transferred into an ELISA plate precoated with antibody 266 against βAP-13-28 (Seubert et al., supra.) and stored at 4° C. overnight. An ELISA assay employing labeled antibody 6C6 (against βAP-1-16) was run the next day to measure the amount of Aβ produced.
Cytotoxic effects of the test compounds were measured by a modification of the method of Hansen et al., (1989) J. Immun. Meth. 119:203-210. To the cells remaining in the tissue culture plate, was added 25 μL of a 3, (4,5-dimethylthiazol-2-yl)2,5-diphenyltetrazolium bromide (MTT) stock solution (5 mg/mL) to a final concentration of […]. Cells were incubated at 37° C. for one hour, and cellular activity was stopped by the addition of an equal volume of MTT lysis buffer (20% w/v sodium dodecylsulfate in 50% DMF, pH 4.7). Complete extraction was achieved by overnight shaking at room temperature. The difference in the OD562 nm and the OD650 nm was measured in a Molecular Devices UVmax microplate reader as an indicator of the cellular viability.
The results of the Aβ ELISA were fit to a standard curve and expressed as ng/mL Aβ peptide. In order to normalize for cytotoxicity, these Aβ results were divided by the MTT results and expressed as a percentage of the results from a drug -free control.
The test compounds were assayed for Aβ production inhibition activity in cells at […] using the test. The results presented in Table 1 are the mean and standard deviation of at least six replicate assays. IC50 means the concentration of test compound in micromoles/liter required to inhibit Aβ production by 50%.
On to `CCCCCCNC(=S)N(O)C(Cc1ccccc1)c1cccc(Oc2ccc(C(C)(C)C)cc2)c1` (stereo not shown) [Compound 34], for which the inhibition at 5 µg/mL is 20%.
Take `ON(Cc1ccc(OCc2ccc(Cl)c(Cl)c2)cc1)C(=S)NCc1ccccc1` [Compound 54]: testing at 5 µg/mL gave an inhibition of 25%.
`ON(Cc1ccc(OCc2ccc(F)c(F)c2)cc1)C(=S)NCc1ccccc1` [Compound 56] registered an inhibition at 5 µg/mL of 28%.
Same read-out and setting: next, `CCCCCCNC(=S)N(O)Cc1cccc(OCc2ccc(C(C)(C)C)cc2)c1` [Compound 50]: 25%; `Cc1cccc(CNC(=S)N(O)Cc2cccc(OCc3ccc(C(C)(C)C)cc3)c2)c1` [Compound 48]: 29%; `CC(C)(C)c1ccc(COc2ccc(CN(O)C(=S)NCc3ccccc3)cc2)cc1` [Compound 52]: 22%.
Same read-out and setting: the value for `CCCCCCNC(=S)N(O)Cc1ccc(OCc2ccc(F)c(F)c2)cc1` [Compound 57] was 4%.
`CC(C)(C)c1ccc(Oc2cccc(C(Cc3ccccc3)N(O)C(=S)NCc3ccccc3)c2)cc1` (stereo not shown) [Compound 33] showed an inhibition at 5 µg/mL of 16%.
In turn, `Cc1cccc(CNC(=S)N(O)C(C)c2cccc(NC(=O)c3ccc(C(C)(C)C)cc3)c2)c1` (stereo not shown) [Compound 100] registered an inhibition at 5 µg/mL of 1%.
Take `COc1cc(COc2ccc(CN(O)C(=S)NCc3ccccc3)cc2)cc(OC)c1` [Compound 60]: the inhibition at 5 µg/mL amounted to 17%.

Still in this experiment, the particulars now being: 10 μg/ml, % of drug-free control, normalized to MTT.
`Cc1nnc(NC(=O)Nc2ccccc2F)s1` [Compound 249] came in with an inhibition at 10 µg/mL of 6%.
For `CC(NC(=S)NCc1ccccc1)c1cccc(Oc2ccccc2)c1` (stereo not shown) [Compound 47], the inhibition at 10 µg/mL was found to be 8%.
`CCCCCCNC(=S)N(O)Cc1ccc(-c2ccc(C(C)(C)C)cc2)cc1` [Compound 80] showed an inhibition at 10 µg/mL of 11%.
Same read-out and setting: next, `CCCc1cc(C(C)(C)C)ccc1Oc1ccc(NC(=S)Nc2ccc(Cl)c(C(F)(F)F)c2)cc1` [Compound 193]: 29%.
On the same count and under the same terms, the value for `ON(Cc1ccc(-c2ccccc2)cc1)C(=S)NCc1ccc(Cl)c(Cl)c1` [Compound 76] was 13%.
For the molecule `COC(=O)c1ccc(NC(=O)Nc2ccc(Cl)c(C(F)(F)F)c2)cc1OC` [Compound 165], the inhibition at 10 µg/mL was determined as 42%.
`CCCCCCNC(=S)N(O)Cc1cccc(OCc2ccc(C(=O)CC)c(O)c2CCC)c1` [Compound 70] yielded an inhibition at 10 µg/mL of 37%.
In the case of `CCCCCCNC(=S)Nc1ccc(C(=O)c2ccccc2)c(O)c1CCC` [Compound 202], 10 µg/mL produced 42% inhibition.
On the same count and under the same terms, next, `COc1ccccc1CNC(=S)Nc1ccc(Oc2ccc(C(C)(C)C)cc2)cc1` [Compound 109]: 37%.
As for `O=C(Nc1ccc(Cl)c(Cl)c1)c1ccccn1` [Compound 227], the “Aβ Production Inhibition Activity, % inhibition at 10 μg/ml” value was found to be 32%.
In the case of `CSc1ccc(NC(=O)Nc2cc(Cl)c(Cl)cc2C)cc1` [Compound 160], 10 µg/mL produced 48% inhibition.
In turn, `ON(Cc1ccc(OCc2c(Cl)cccc2Cl)cc1)C(=S)NCc1ccccc1` [Compound 64] had an inhibition at 10 µg/mL of 18%.
Turning to `CCCc1c(COc2ccc(CN(O)C(=S)Nc3ccc(Cl)c(C(F)(F)F)c3)cc2)ccc(C(=O)c2ccccc2)c1O` [Compound 69], the inhibition at 10 µg/mL worked out at 14%.
On the same count and under the same terms, next, `COC(=O)c1ccccc1NC(=O)Nc1ccc(Cl)c(Cl)c1` [Compound 142]: 22%; `CSc1ccc(NC(=O)Nc2cccc(Cl)c2Cl)cc1` [Compound 158]: 51%.
The molecule `CSc1ccc(NC(=O)Nc2ccccc2Cl)cc1` [Compound 157] displayed an inhibition at 10 µg/mL of 41%.

Still in this experiment, the particulars now being: 2 h pretreatment + 2 h incubation.
As to `Cc1nnc(NC(=O)Nc2ccc(F)c(Cl)c2)s1` [Compound 250, 1-(5-methyl-1,3,4-thiadiazol-2-yl)-3-(4-fluoro-3-chlorophenyl)urea], the IC50 came out at 9.8 µM.
For `FC(F)(F)c1cccc(NC(=S)Nc2ccc(Cl)c(Cl)c2)c1` [Compound 147], the IC50 amounted to 4.7 µM.
Still for that read-out and setting: next, `COc1c(C(C)(C)C)cc(COc2ccc(CN(O)C(=S)NCc3ccccc3)cc2)cc1C(C)(C)C` [Compound 73]: 5.9 µM; `CC(C)(C)c1ccc(Oc2ccc(NC(=S)NCc3ccc(Cl)cc3)cc2)cc1` [Compound 106]: 9.2 µM; `CCCCCCNC(=S)N(O)Cc1cccc(Oc2ccc(C(C)(C)C)cc2)c1` [Compound 27]: 9.4 µM.
Still for that read-out and setting: next, `CC(C)(C)c1ccc(Oc2ccc(NC(=S)NCC3CCCCN3)cc2)cc1` (stereo not shown) [Compound 126]: 7 µM.
Consider `CCCCCCNC(=S)N(O)Cc1ccccc1Oc1ccc(C(C)(C)C)cc1` [Compound 182], for which the half-inhibitory concentration (IC50) was 34 µM.
On the same count and under the same terms, next, `CC(C)(C)c1ccc(Oc2ccc(NC(=S)Nc3ccccc3)cc2)cc1` [Compound 114]: 18.2 µM; `CC(C)(C)c1ccc(Oc2ccc(NC(=S)NCc3ccc(F)cc3Cl)cc2)cc1` [Compound 130]: 7.2 µM; `CCC(C)(C)c1ccc(OCc2ccc(CN(O)C(=S)NCc3ccccc3)cc2)cc1` [Compound 97]: 10 µM.
On the same count and under the same terms, the value for `CCCCc1ccc(Oc2cccc(C(C)N(O)C(=S)NCc3ccccc3)c2)cc1` (stereo not shown) [Compound 45] was 9.2 µM; that for `CC(C)(C)c1ccc(SCc2ccc(CN(O)C(=S)NCc3ccccc3)cc2)cc1` [Compound 94] was 13.1 µM; that for `O=C(Nc1ccccc1)Nc1ccc(Cl)c(Cl)c1` [Compound 152] was 11.4 µM.
On to `CC(c1cccc(Oc2ccc(C(C)(C)C)cc2)c1)N(O)C(=S)Nc1cccc2ccccc12` (stereo not shown) [Compound 12], for which the IC50 was over 20 µM.
Turning to `S=C(Nc1ccc(Cl)c(Cl)c1)Nc1ccc(Cl)c(Cl)c1` [Compound 153], the IC50 is 1.7 µM.
For `CC(C)(C)c1cccc(Oc2ccc(NC(=S)Nc3cccc(C(F)(F)F)c3)cc2)c1` [Compound 176], the IC50 worked out at 4.6 µM.
Still for that read-out and setting: the value for `CC(C)(C)c1ccccc1Oc1ccc(NC(=S)Nc2ccccc2C(F)(F)F)cc1` [Compound 190] was 13.8 µM.
Still for that read-out and setting: next, `CSc1ccc(NC(=O)Nc2ccc(SC)c(Br)c2)cc1` [Compound 164]: 14.4 µM; `CCCc1cc(C(C)(C)C)ccc1Oc1ccc(NC(=S)NCc2ccccc2)cc1` [Compound 197]: 4.6 µM; `CCCc1c(NC(=S)Nc2cccc(C(F)(F)F)c2)ccc(C(=O)c2ccccc2)c1O` [Compound 201]: 20 µM.
Regarding `CC(C)(C)c1ccc(Oc2ccc(NC(=S)NCc3ccc(F)cc3F)cc2)cc1` [Compound 128], the IC50 turned out to be 7.3 µM.
The same measure, in the same setting: the value for `CC(C)(C)c1ccc(Oc2ccc(NC(=S)NCCc3ccccc3)cc2)cc1` [Compound 116] was 19.8 µM.
The same measure, in the same setting: the value for `CC(C)(C)c1ccc(Sc2cccc(CN(O)C(=S)NCc3ccccc3)c2)cc1` [Compound 86] was 5.9 µM; that for `CC(C)(C)c1ccc(Oc2ccc(NC(=S)NCc3ccc(F)c(Cl)c3)cc2)cc1` [Compound 131] was 5 µM; that for `CC(C)(C)OC(=O)N1CCCC(CNC(=S)Nc2ccc(Oc3ccc(C(C)(C)C)cc3)cc2)C1` (stereo not shown) [Compound 125] was 9.3 µM.
Turning to `CC(c1cccc(Oc2ccc(C(C)(C)C)cc2)c1)N(O)C(=S)NCc1ccc(F)cc1` (stereo not shown) [Compound 4], the IC50 came out at 11.1 µM.
As to `CC(C)(C)c1ccc(Oc2ccc(NC(=S)NCc3ccccn3)cc2)cc1` [Compound 120], the IC50 was found to be 15.6 µM.
On the same count and under the same terms, next, `COc1c(C(C)(C)C)cc(COc2cccc(CN(O)C(=S)NCc3ccccc3)c2)cc1C(C)(C)C` [Compound 72]: 8.1 µM; `CC(C)(C)c1ccc(-c2ccc(CN(O)C(=S)Nc3ccc(Cl)c(C(F)(F)F)c3)cc2)cc1` [Compound 83]: 12.4 µM.
The same measure, in the same setting: next, `CCCc1cc(C(C)(C)C)ccc1Oc1cccc(CN(O)C(=S)NCc2ccccc2)c1` [Compound 101]: 4.5 µM; `CC(C)(C)c1ccc(Oc2ccc(NC(=S)NCc3ccccc3)cc2)cc1` [Compound 115]: 16.4 µM; `CC(C)(C)c1ccc(Oc2ccc(NC(=S)NCc3ccccc3Cl)cc2)cc1` [Compound 104]: 13.4 µM.
With `COC(=O)c1sc2ccccc2c1C(=O)Nc1ccc(Cl)c(Cl)c1` [Compound 233], the IC50 is 15.2 µM.
On to `CC(C)(C)c1cccc(Oc2ccc(NC(=S)Nc3ccc(Cl)c(C(F)(F)F)c3)cc2)c1` [Compound 169], for which the IC50 turned out to be 4.6 µM.
On the same count and under the same terms, next, `O=C(Nc1ccc(Cl)c(Cl)c1)c1nccs1` [Compound 243]: 19.4 µM.
